Our source for the TGI values is PubChem BioAssay (NCI).

SMILES strings stand for the structures.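 Test compounds were applied to cells in 96-well plates for 48 hours at 5 doses. TGI denotes the concentration required for complete inhibition of growth.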

One test deals with RPMI-8226 leukemia. In words: NCI anticancer screen, dose series, 48 h.
With `C1=NCCN2CCN(CCN=Cc3ccc(cc3)OCc3cccc(n3)COc3ccc1cc3)CC2`, the TGI was over 50 µM.
Same read-out and setting: next, `C(=C\c1cccs1)/c1cccc(/C=C/c2cccs2)n1`: over 100 µM; `CC(CCN)(CCN)[N+](=O)[O-]`: over 100 µM.
The same measure, in the same setting: to `Cn1c(=O)c(Br)c(C=O)n(CCO[N+](=O)[O-])c1=O` belongs 7.42 µM; to `C/C(CC(=O)Nc1ccc([N+](=O)[O-])cc1)=N\NC(N)=O`, over 69.5 µM.
Still for that read-out and setting: to `CCOC(=O)c1cccn1S(=O)(=O)c1cc(Cl)ccc1NC(=O)CC` belongs over 100 µM.
On to `CCCCOC(=O)C1C2CCC(O2)C1C(=O)OCCCC` (centres undefined), for which the TGI was over 68.5 µM.
Still for that read-out and setting: to `C=CCN1C(=O)C=C(c2ccccc2)n2ncc3cccc1c32` belongs over 100 µM.
With `O=C([O-])C[n+]1ccccc1`, the TGI was over 100 µM.
Regarding `CSc1nc(C#N)c(/N=C\N(C)C)n1C`, the TGI was over 100 µM.
In the case of `CN(C)CCCSc1nc2ccccc2[nH]1`, the TGI is over 100 µM.

In another test the test system is IGROV1 ovarian. In words: NCI anticancer screen, dose series, 48 h.
Consider `O=C1/C(=C/c2cccc(Br)c2)CCc2ccccc21`, for which the TGI was 24.7 µM.
For `CN(CCCCCl)P(=O)(OCc1ccc([N+](=O)[O-])o1)OC[C@H]1O[C@@H](n2cc(F)c(=O)[nH]c2=O)C[C@@H]1O` (some centres undefined), the TGI was over 63.5 µM.
Same read-out and setting: next, `CC1C2(C)OC(=N)C(C#N)(C(c3ccccc3)O2)C1(C#N)C#N` (centres undefined): over 100 µM; `O=C1NC2ON=C(c3ccccc3)C2C2ON=C(c3ccccc3)N12` (centres undefined): over 100 µM.
In turn, `COC(=O)C1(C(=O)OC)Cc2ccc(OC)cc2C2=C1C(=O)c1ccccc1C2=O` yielded a TGI of 8.53 µM.
Consider `COCCOC(=O)c1c(C)n([O-])c2cc(Cl)c(Cl)cc2[n+]1=O`, for which the TGI was found to be 23.5 µM.
Consider `COc1ccc2[nH]cc(CCNC(=O)[C@H](Cc3ccccc3)NC(=O)[C@@H](NCC(F)(F)F)C(C)C)c2c1`, for which the TGI was 51.3 µM.
Same read-out and setting: to `COc1ccc(Nc2nnc(-c3nsc4ccccc34)s2)cc1` belongs over 100 µM.
`C=CCNC1=C2C[C@@H](C)C[C@@H](OC)[C@H](OC(=O)CCN)[C@H](C)/C=C(\C)[C@@H](OC(N)=O)[C@H](OC)/C=C\C=C(/C)C(=O)NC(=CC1=O)C2=O` returned a TGI of 19.6 µM.
Still for that read-out and setting: to `C1=NCCN2CCN(CCN=Cc3ccc(cc3)OCc3cccc(n3)COc3ccc1cc3)CC2` belongs over 50 µM.
Turning to `C(=C\c1cccs1)/c1cccc(/C=C/c2cccs2)n1`, the TGI is over 100 µM.
In turn, `CC(CCN)(CCN)[N+](=O)[O-]` gave a TGI of over 100 µM.
The same measure, in the same setting: to `C/C(CC(=O)Nc1ccc([N+](=O)[O-])cc1)=N\NC(N)=O` belongs over 100 µM.
The compound `CCOC(=O)c1cccn1S(=O)(=O)c1cc(Cl)ccc1NC(=O)CC` displayed a TGI of over 100 µM.
The same measure, in the same setting: next, `CCCCOC(=O)C1C2CCC(O2)C1C(=O)OCCCC` (centres undefined): over 100 µM; `C=CCN1C(=O)C=C(c2ccccc2)n2ncc3cccc1c32`: over 100 µM.
Compound `O=C([O-])C[n+]1ccccc1` had a TGI of over 100 µM.
On the same count and under the same terms, next, `CSc1nc(C#N)c(/N=C\N(C)C)n1C`: over 100 µM; `CN(C)CCCSc1nc2ccccc2[nH]1`: over 100 µM.

Another test concerns OVCAR-5 ovarian. In words: NCI anticancer screen, dose series, 48 h.
The compound `O=C1/C(=C/c2cccc(Br)c2)CCc2ccccc21` came in with a TGI of 28.3 µM.
`Cc1ccc(S(=O)(=O)n2cc(-c3cc(C(F)(F)F)ccn3)c3cc(Br)ccc32)cc1` showed a TGI of over 100 µM.
`CN(CCCCCl)P(=O)(OCc1ccc([N+](=O)[O-])o1)OC[C@H]1O[C@@H](n2cc(F)c(=O)[nH]c2=O)C[C@@H]1O` (some centres undefined) gave a TGI of over 100 µM.
Regarding `CC1C2(C)OC(=N)C(C#N)(C(c3ccccc3)O2)C1(C#N)C#N` (centres undefined), the TGI was determined as 69.5 µM.
Same read-out and setting: next, `O=C1NC2ON=C(c3ccccc3)C2C2ON=C(c3ccccc3)N12` (centres undefined): over 100 µM; `COC(=O)C1(C(=O)OC)Cc2ccc(OC)cc2C2=C1C(=O)c1ccccc1C2=O`: 20.2 µM.
In turn, `COCCOC(=O)c1c(C)n([O-])c2cc(Cl)c(Cl)cc2[n+]1=O` came in with a TGI of 34.6 µM.
The compound `COc1ccc2[nH]cc(CCNC(=O)[C@H](Cc3ccccc3)NC(=O)[C@@H](NCC(F)(F)F)C(C)C)c2c1` had a TGI of 34.8 µM.
With `COc1ccc(Nc2nnc(-c3nsc4ccccc34)s2)cc1`, the TGI is over 100 µM.
As to `C=CCNC1=C2C[C@@H](C)C[C@@H](OC)[C@H](OC(=O)CCN)[C@H](C)/C=C(\C)[C@@H](OC(N)=O)[C@H](OC)/C=C\C=C(/C)C(=O)NC(=CC1=O)C2=O`, the TGI came to 23.3 µM.
Still for that read-out and setting: next, `C1=NCCN2CCN(CCN=Cc3ccc(cc3)OCc3cccc(n3)COc3ccc1cc3)CC2`: over 50 µM; `C(=C\c1cccs1)/c1cccc(/C=C/c2cccs2)n1`: over 100 µM; `CC(CCN)(CCN)[N+](=O)[O-]`: over 100 µM.
Compound `Cn1c(=O)c(Br)c(C=O)n(CCO[N+](=O)[O-])c1=O` gave a TGI of 13.8 µM.
The same measure, in the same setting: next, `C/C(CC(=O)Nc1ccc([N+](=O)[O-])cc1)=N\NC(N)=O`: over 100 µM.
Same read-out and setting: next, `CCOC(=O)c1cccn1S(=O)(=O)c1cc(Cl)ccc1NC(=O)CC`: over 100 µM; `CCCCOC(=O)C1C2CCC(O2)C1C(=O)OCCCC` (centres undefined): over 100 µM.
Consider `C=CCN1C(=O)C=C(c2ccccc2)n2ncc3cccc1c32`, for which the TGI is over 100 µM.
On the same count and under the same terms, next, `O=C([O-])C[n+]1ccccc1`: over 100 µM; `CSc1nc(C#N)c(/N=C\N(C)C)n1C`: over 100 µM.
The compound `CN(C)CCCSc1nc2ccccc2[nH]1` displayed a TGI of over 100 µM.

In another test the test system is SK-MEL-5 melanoma. Briefly: NCI anticancer screen, dose series, 48 h.
`Cc1ccc(S(=O)(=O)n2cc(-c3cc(C(F)(F)F)ccn3)c3cc(Br)ccc32)cc1` yielded a TGI of 82.9 µM.
As to `CN(CCCCCl)P(=O)(OCc1ccc([N+](=O)[O-])o1)OC[C@H]1O[C@@H](n2cc(F)c(=O)[nH]c2=O)C[C@@H]1O` (some centres undefined), the TGI amounted to 12.9 µM.
Still for that read-out and setting: to `CC1C2(C)OC(=N)C(C#N)(C(c3ccccc3)O2)C1(C#N)C#N` (centres undefined) belongs 30.3 µM.
For `O=C1NC2ON=C(c3ccccc3)C2C2ON=C(c3ccccc3)N12` (centres undefined), the TGI is over 100 µM.
On the same count and under the same terms, to `COC(=O)C1(C(=O)OC)Cc2ccc(OC)cc2C2=C1C(=O)c1ccccc1C2=O` belongs 19.3 µM; to `COCCOC(=O)c1c(C)n([O-])c2cc(Cl)c(Cl)cc2[n+]1=O`, 21.6 µM; to `COc1ccc(Nc2nnc(-c3nsc4ccccc34)s2)cc1`, over 100 µM.
The compound `C=CCNC1=C2C[C@@H](C)C[C@@H](OC)[C@H](OC(=O)CCN)[C@H](C)/C=C(\C)[C@@H](OC(N)=O)[C@H](OC)/C=C\C=C(/C)C(=O)NC(=CC1=O)C2=O` registered a TGI of 17.4 µM.
With `C(=C\c1cccs1)/c1cccc(/C=C/c2cccs2)n1`, the TGI was over 100 µM.
For the compound `CC(CCN)(CCN)[N+](=O)[O-]`, the TGI was over 100 µM.
`Cn1c(=O)c(Br)c(C=O)n(CCO[N+](=O)[O-])c1=O`: the TGI was 23.9 µM.
Still for that read-out and setting: to `C/C(CC(=O)Nc1ccc([N+](=O)[O-])cc1)=N\NC(N)=O` belongs over 100 µM; to `CCOC(=O)c1cccn1S(=O)(=O)c1cc(Cl)ccc1NC(=O)CC`, over 100 µM.
Compound `CCCCOC(=O)C1C2CCC(O2)C1C(=O)OCCCC` (centres undefined) showed a TGI of over 100 µM.
With `C=CCN1C(=O)C=C(c2ccccc2)n2ncc3cccc1c32`, the TGI is over 100 µM.
Still for that read-out and setting: to `O=C([O-])C[n+]1ccccc1` belongs over 100 µM; to `CSc1nc(C#N)c(/N=C\N(C)C)n1C`, over 100 µM; to `CN(C)CCCSc1nc2ccccc2[nH]1`, over 100 µM.
